# Experimental data from PubChem BioAssay (NCI).
#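 Following 48 hours of exposure in 96-well plates, responses at five concentrations were used to interpolate endpoints linearly. GI50 marks 50% less growth. Definition used: TGI = concentration required for complete inhibition of growth.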
# Columns and labels:
# Assay in all cases: growth of human tumour cells (NCI), 48 h
# NCI-H23 lung = tested on: NCI-H23 lung
# BT-549 breast = tested on: BT-549 breast
# OVCAR-5 ovarian = tested on: OVCAR-5 ovarian
# ACHN renal = tested on: ACHN renal
# MDA-MB-231 breast = tested on: MDA-MB-231 breast
# COLO 205 colon = tested on: COLO 205 colon
# SK-MEL-2 melanoma = tested on: SK-MEL-2 melanoma
# CCRF-CEM leukemia = tested on: CCRF-CEM leukemia
# UACC-62 melanoma = tested on: UACC-62 melanoma
# MDA-MB-435 = tested on: MDA-MB-435
Structure (SMILES),GI50 (NCI-H23 lung) [µM],TGI (NCI-H23 lung) [µM],GI50 (BT-549 breast) [µM],TGI (BT-549 breast) [µM],GI50 (OVCAR-5 ovarian) [µM],TGI (OVCAR-5 ovarian) [µM],GI50 (ACHN renal) [µM],TGI (ACHN renal) [µM],GI50 (MDA-MB-231 breast) [µM],TGI (MDA-MB-231 breast) [µM],GI50 (COLO 205 colon) [µM],TGI (COLO 205 colon) [µM],GI50 (SK-MEL-2 melanoma) [µM],TGI (SK-MEL-2 melanoma) [µM],GI50 (CCRF-CEM leukemia) [µM],TGI (CCRF-CEM leukemia) [µM],GI50 (UACC-62 melanoma) [µM],TGI (UACC-62 melanoma) [µM],GI50 (MDA-MB-435) [µM],TGI (MDA-MB-435) [µM]
NC(=O)c1cccc(-c2cc(C(N)=O)ccc2Cl)c1,9.21,> 100,6.82,> 100,4.11,> 100,6.46,> 100,4.52,> 100,3.21,> 100,5.21,> 100,2.19,> 100,1.77,56,,
COc1ccc(-c2onc(-c3c(C)cc(C)cc3C)c2C2=NCCN2)cc1,,> 100,,,,> 100,,> 100,,,,49,,> 100,,> 100,,> 100,,
O=C(Nc1ccccc1Cl)c1cccc(NC2=C(Cl)C(=O)N(Cc3ccccc3)C2=O)c1,50.5,> 100,22.5,> 100,> 100,> 100,60.5,> 100,17.1,69.7,51.2,> 100,,6.38,,,7.36,51,3.05,10.3
COc1ccc(Oc2ccccc2NC(=O)CNC(=O)c2cccc3ccccc23)cc1,1.28,> 25,1.12,> 25,1.98,> 25,1.53,> 25,2.25,> 25,0.64,2.04,,,0.904,> 25,0.559,> 25,,
COc1ccc2c(c1)C(=O)c1c-2n(CCCN)c(=O)c2cc([N+](=O)[O-])ccc12,,,< 0.01,,< 0.01,< 0.01,,,0.1,0.227,,,3.06,8.53,< 0.01,< 0.01,< 0.01,< 0.01,3.3,19.5
O=C(N/C(=C\c1cc(Cl)ccc1Cl)c1nc2ccc(Cl)cc2[nH]1)c1ccccc1,,28.7,,,,60.1,,78.1,,,,33.6,,32.4,,51.4,,24.8,,
Clc1ccccc1NN(Cc1ccncc1)c1ccccc1Cl,,29.2,,33.7,,38.4,,35.6,,27.8,,32,,28.6,,,,30.7,,29.7
CC(=O)[CH-]C(=O)Nc1ccccc1.CC(=O)[CH-]C(=O)Nc1ccccc1.CC[O-].CC[O-].[Ti+4],> 100,> 100,,,> 100,> 100,> 100,> 100,,,> 100,> 100,> 100,> 100,> 100,> 100,> 100,> 100,,
Cc1ccc(NC(=O)CC2SC(N)=NC2=O)cc1C (centres undefined),,> 100,,,,> 100,,> 100,,,,> 100,,> 100,,,,> 100,,
C#C[C@H]1CCCCCC1O (some centres undefined),,> 100,,,,> 100,,> 100,,,,> 100,,> 100,,> 100,,> 100,,
Cc1nc2c(sc(=S)n2-c2ccccc2)c2nc3ccccc3n12,,> 100,,,,> 100,,> 100,,,,> 100,,> 100,,> 100,,> 100,,
Nc1ncnc2c1nnn2C1C=C(CO)C(O)C1O (centres undefined),,> 100,,,,> 100,,> 100,,,,> 50.6,,> 100,,> 100,,> 100,,
COC/N=C(/N)NC#N,,> 100,,,,> 100,,> 100,,,,39.2,,> 100,,> 100,,> 100,,
NC(=O)C12CC3CC(CC(Br)(C3)C1)C2,,> 100,,,,> 100,,> 100,,,,,,,,> 100,,> 100,,
COc1ccc(-c2ccc(/C=N/n3c(COc4ccccc4Cl)n[nH]c3=S)o2)c([N+](=O)[O-])c1,18.5,41.8,,,44.9,> 100,25.6,69.5,46.7,> 100,40.2,> 100,,,23.1,> 100,,,20,46.6
CCSc1nc(N)c(C#N)c(-c2ccco2)c1C#N,53.2,> 100,32.3,> 100,> 100,> 100,16.9,69.2,> 100,> 100,30.2,> 100,> 100,> 100,,,32.6,> 100,25.2,66.1
CCN(C(=O)CN1CCN(c2cc3c(cc2F)c(=O)c(C(=O)O)cn3CC)CC1)c1nc(-c2ccccc2)cs1,0.315,> 100,0.344,> 100,0.505,> 100,0.33,> 100,0.442,> 100,0.226,0.568,0.248,0.692,0.427,> 100,,,0.306,> 100
CCC[CH2][Sn]([CH2]CCC)([O]C(=O)/C=C/c1ccccc1F)[O]C(=O)/C=C/c1ccccc1F,0.198,0.56,,,1.5,2.83,0.797,2.05,,,0.907,2.41,0.324,1.19,0.139,0.616,1.17,2.59,,
